Inhibition data for five compounds are collected here from publication PMC5540273, “Progress towards a public chemogenomic set for protein kinases and a call for contributions” (PLoS ONE, 2017).

Holding throughout (assay): KINOMEscan competition binding
For one experiment, the target named is T1, IRAK3 (Homo sapiens, UniProt Q9Y616).
T1 sequence (Q9Y616 1-596): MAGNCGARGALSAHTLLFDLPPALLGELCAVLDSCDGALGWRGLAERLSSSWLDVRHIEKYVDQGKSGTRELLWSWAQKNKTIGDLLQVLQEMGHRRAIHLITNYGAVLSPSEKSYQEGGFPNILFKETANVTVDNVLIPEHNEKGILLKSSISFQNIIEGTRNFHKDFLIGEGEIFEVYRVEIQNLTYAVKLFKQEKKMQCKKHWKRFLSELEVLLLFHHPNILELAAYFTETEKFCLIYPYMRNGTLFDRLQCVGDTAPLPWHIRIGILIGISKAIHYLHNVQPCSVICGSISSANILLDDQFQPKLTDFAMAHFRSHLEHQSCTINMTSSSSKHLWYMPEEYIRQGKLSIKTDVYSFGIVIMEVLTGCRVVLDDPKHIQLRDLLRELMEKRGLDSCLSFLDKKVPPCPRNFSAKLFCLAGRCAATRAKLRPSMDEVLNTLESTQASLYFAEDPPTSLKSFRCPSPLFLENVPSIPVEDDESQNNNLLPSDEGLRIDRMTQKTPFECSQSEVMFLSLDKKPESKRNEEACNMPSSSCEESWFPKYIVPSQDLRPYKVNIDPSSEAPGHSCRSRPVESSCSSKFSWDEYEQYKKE
Conditions: read-out: %Inh IRAK3.

Another experiment concerns the target CAMK2D (Homo sapiens, UniProt Q13557). The settings on record: read-out: %Inh CAMK2D.
The target in the next experiment is CSNK1E (Homo sapiens, UniProt P49674). Conditions: read-out: %Inh CSNK1E.
Sequence of CSNK1E (P49674 whole entry): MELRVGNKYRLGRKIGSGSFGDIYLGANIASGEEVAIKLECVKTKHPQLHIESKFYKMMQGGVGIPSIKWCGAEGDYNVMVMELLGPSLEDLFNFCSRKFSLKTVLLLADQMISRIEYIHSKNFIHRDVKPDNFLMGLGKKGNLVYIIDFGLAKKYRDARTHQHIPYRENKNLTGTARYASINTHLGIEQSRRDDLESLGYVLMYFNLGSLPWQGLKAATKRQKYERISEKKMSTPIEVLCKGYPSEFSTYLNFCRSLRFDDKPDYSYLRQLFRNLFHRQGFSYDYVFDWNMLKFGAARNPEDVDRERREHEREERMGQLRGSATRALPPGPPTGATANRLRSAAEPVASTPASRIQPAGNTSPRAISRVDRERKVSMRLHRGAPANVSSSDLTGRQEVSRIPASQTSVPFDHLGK
The target of another experiment is FLT1 (Homo sapiens, UniProt P17948). The settings on record: read-out: %Inh FLT1.
Sequence of FLT1 (P17948 27-1338): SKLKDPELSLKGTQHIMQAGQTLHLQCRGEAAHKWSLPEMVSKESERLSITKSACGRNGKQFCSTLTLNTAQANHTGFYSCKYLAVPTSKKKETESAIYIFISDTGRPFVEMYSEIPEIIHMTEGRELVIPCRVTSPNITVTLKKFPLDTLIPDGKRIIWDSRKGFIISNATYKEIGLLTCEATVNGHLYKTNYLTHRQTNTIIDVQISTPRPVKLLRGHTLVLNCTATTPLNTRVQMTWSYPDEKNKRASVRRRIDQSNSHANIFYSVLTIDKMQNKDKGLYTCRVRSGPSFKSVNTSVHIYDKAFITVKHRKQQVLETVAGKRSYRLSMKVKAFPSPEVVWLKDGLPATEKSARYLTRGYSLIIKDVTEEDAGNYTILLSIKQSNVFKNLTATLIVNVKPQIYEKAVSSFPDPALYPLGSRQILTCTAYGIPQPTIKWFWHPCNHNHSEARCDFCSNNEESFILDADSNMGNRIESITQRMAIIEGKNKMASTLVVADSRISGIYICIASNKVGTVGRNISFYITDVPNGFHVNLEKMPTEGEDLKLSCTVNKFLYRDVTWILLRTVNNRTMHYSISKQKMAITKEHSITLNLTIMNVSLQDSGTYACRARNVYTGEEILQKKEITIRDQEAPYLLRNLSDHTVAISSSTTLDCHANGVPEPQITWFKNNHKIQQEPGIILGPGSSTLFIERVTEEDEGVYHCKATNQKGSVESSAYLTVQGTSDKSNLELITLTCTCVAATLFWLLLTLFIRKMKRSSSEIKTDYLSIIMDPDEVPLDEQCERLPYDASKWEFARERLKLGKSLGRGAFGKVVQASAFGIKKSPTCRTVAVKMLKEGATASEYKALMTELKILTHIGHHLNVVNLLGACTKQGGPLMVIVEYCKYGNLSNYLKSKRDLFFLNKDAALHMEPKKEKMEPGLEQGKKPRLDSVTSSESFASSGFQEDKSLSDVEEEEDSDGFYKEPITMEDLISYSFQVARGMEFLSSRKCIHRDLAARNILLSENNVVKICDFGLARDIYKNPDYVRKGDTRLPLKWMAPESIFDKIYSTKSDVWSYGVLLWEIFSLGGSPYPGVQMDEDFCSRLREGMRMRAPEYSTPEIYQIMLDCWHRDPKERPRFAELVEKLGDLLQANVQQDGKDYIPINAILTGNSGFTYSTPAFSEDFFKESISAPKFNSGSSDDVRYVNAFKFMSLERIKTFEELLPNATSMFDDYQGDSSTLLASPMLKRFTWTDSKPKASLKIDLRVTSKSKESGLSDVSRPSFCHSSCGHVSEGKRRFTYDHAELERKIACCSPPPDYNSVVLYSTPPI
The target in the next experiment is CSNK1G3 (Homo sapiens, UniProt Q9Y6M4). Conditions: read-out: %Inh CSNK1G3.
Sequence of CSNK1G3 (Q9Y6M4 whole entry): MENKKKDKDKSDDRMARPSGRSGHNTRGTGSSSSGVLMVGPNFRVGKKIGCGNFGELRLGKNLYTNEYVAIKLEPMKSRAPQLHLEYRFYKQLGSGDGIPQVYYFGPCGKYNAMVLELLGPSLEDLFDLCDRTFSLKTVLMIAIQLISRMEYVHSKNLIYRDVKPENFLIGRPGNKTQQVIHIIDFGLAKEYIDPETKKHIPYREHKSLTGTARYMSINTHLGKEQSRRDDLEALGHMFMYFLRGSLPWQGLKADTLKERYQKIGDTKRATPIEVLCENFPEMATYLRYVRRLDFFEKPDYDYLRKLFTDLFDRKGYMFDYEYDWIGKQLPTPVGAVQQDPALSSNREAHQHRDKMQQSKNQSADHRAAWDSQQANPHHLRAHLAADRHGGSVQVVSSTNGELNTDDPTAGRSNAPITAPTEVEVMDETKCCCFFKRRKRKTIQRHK
Another experiment addresses T2, ICK (Homo sapiens, UniProt Q9UPZ9).
T2 sequence (Q9UPZ9 1-632): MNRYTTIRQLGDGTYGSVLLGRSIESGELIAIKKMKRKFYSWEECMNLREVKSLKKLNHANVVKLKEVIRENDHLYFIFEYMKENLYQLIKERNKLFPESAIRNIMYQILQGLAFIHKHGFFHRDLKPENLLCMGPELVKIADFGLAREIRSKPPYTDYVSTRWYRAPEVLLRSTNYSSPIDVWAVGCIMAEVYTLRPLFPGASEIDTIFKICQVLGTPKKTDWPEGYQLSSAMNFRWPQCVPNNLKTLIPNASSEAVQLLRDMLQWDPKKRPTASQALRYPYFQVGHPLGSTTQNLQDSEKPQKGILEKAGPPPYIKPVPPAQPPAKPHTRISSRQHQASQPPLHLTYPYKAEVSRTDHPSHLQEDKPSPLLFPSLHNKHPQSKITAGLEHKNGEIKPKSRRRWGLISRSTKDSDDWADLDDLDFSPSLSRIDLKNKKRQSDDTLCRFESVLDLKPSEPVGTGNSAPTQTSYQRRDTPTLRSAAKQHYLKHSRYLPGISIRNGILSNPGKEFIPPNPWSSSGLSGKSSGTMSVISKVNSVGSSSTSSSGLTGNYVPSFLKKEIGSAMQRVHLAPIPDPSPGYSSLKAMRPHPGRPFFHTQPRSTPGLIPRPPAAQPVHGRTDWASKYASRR
Conditions: read-out: %Inh ICK.

Another experiment addresses ACVRL1 (Homo sapiens, UniProt P37023). The settings on record: read-out: %Inh ACVRL1.
In the next experiment the target is T3, AURKC (Homo sapiens, UniProt Q9UQB9).
T3 sequence (Q9UQB9 1-309): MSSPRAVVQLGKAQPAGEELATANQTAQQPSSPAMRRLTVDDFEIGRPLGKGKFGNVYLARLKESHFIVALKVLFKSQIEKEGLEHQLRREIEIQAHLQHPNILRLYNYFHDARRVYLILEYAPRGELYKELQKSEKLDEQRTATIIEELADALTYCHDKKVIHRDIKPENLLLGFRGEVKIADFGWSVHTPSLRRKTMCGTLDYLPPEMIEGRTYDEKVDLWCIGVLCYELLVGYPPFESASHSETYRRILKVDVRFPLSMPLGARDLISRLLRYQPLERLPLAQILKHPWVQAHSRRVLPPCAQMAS
The settings on record: read-out: %Inh AURKC.

A further experiment has as its target T4, EPHA1 (Homo sapiens, UniProt P21709).
T4 sequence (P21709 26-976): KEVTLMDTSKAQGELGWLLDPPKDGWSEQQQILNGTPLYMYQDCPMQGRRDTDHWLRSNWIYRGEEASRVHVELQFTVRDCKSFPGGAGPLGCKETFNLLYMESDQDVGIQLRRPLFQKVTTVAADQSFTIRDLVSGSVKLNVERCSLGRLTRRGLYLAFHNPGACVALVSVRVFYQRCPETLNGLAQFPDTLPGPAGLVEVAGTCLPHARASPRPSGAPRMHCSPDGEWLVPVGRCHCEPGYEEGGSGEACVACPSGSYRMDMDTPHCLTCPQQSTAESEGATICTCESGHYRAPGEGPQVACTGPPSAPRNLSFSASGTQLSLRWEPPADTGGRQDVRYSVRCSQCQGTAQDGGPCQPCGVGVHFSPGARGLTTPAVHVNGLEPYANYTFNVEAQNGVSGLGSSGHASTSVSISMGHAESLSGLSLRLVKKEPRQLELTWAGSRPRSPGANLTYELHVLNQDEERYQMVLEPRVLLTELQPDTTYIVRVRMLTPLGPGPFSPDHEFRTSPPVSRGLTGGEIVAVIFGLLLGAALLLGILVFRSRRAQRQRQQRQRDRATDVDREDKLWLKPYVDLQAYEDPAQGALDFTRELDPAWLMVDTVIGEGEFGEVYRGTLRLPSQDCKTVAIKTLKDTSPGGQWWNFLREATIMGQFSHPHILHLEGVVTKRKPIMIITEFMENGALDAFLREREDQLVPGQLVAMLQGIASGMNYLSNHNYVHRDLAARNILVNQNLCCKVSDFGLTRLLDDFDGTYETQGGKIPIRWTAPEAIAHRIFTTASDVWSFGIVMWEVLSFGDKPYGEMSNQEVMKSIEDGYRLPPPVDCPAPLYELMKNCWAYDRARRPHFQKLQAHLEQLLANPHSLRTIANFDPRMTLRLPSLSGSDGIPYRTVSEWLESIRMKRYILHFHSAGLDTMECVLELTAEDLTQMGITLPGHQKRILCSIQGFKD
Conditions: read-out: %Inh EPHA1.

Sequence of CAMK2D (Q13557 whole entry): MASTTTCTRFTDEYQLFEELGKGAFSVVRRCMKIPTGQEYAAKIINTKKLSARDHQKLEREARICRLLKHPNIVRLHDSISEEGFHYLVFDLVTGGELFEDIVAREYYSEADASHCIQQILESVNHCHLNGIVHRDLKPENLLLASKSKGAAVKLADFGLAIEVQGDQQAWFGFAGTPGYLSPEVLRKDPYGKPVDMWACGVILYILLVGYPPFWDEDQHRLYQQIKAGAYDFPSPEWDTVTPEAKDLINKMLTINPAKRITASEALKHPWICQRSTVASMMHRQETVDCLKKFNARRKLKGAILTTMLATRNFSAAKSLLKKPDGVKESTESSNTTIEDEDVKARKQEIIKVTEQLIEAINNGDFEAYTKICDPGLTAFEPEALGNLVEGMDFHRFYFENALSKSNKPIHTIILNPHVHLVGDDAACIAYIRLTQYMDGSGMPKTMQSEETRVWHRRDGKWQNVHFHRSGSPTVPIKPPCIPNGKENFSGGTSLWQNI
Sequence of ACVRL1 (P37023 22-503): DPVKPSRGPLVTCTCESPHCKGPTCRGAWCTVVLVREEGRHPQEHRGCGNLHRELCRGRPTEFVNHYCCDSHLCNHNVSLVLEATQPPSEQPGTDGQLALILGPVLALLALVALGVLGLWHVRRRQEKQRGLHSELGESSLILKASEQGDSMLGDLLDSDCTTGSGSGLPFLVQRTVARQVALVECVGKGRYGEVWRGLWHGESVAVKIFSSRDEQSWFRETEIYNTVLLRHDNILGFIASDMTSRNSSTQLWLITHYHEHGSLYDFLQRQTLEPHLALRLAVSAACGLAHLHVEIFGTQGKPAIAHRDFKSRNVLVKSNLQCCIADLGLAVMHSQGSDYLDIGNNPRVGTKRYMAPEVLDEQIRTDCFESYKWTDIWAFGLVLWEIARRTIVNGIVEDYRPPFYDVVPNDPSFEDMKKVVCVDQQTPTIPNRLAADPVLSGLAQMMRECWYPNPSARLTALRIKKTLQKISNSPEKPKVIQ

Consider `Cn1cc(-c2cnc(N)c3c(-c4ccc5c(c4)CCN5C(=O)Cc4ccccc4)csc23)cn1` [UNC10225012A], for which the inhibition at 1 µM at IRAK3 amounted to 5%; at CAMK2D, 0%; on CSNK1E, 1%; at FLT1, 79%; on CSNK1G3, 22%; on ICK it was 100%. In addition, the inhibition at 1 µM on ACVRL1 came out at 0%; at AURKC it was 92.2%; at EPHA1, 11%.

Consider `CS(=O)(=O)Cc1ccc(Nc2nccc(-c3c(-c4cccc(NC(=O)C5CCCCC5)c4)nn4ncccc34)n2)cc1` [UNC10225159A], for which the inhibition at 1 µM at IRAK3 turned out to be 3%; on CAMK2D it was 0%; at CSNK1E, 20%; at FLT1, 63%; at CSNK1G3 it was 4%; at ICK, 14%. Moreover, the inhibition at 1 µM at ACVRL1 worked out at 0%; on AURKC, 49%; on EPHA1, 6%.

Regarding `Cc1ccc(NC(=O)Nc2cccc(C(F)(F)F)c2)cc1` [UNC10225187A], the inhibition at 1 µM on IRAK3 amounted to 100%; on CAMK2D, 8%; at CSNK1E, 0%; on FLT1, 23%; on CSNK1G3, 0%; on ICK it was 0%. Moreover, the figures for the inhibition at 1 µM at ACVRL1, at AURKC and on EPHA1 were 0%, 19% and 17%, respectively.

With `COc1cccc(OC)c1C(=O)Nc1cccc(-c2nn3ccccc3c2-c2ccnc(Nc3cccc(F)c3)n2)c1` [UNC10225310A], the inhibition at 1 µM on IRAK3 amounted to 0%; at CAMK2D, 0%; at CSNK1E, 64%; on FLT1, 32%; on CSNK1G3, 3%; at ICK it was 0%. In addition, the inhibition at 1 µM was 7% on ACVRL1, 70% on AURKC and 4% on EPHA1.

For the compound `O=c1cc(N2CCOCC2)nc2n(Cc3cccc(Cl)c3Cl)c(C3CC3)nn12` [UNC10225469A], the inhibition at 1 µM on IRAK3 is 0%; at CAMK2D it was 18%; on CSNK1E, 11%; at FLT1, 6%; on CSNK1G3, 23%; at ICK, 4%. For the same compound, the inhibition at 1 µM was 9% on ACVRL1, 0% on AURKC and 7% at EPHA1.
